From patent US6166000A, “Methods for preparation and use of 1α,24(S)-Dihydroxy vitamin . D.sub2” (priority 1995, dated 2000)
Where two headings read alike, the source gives them in different places. Each block holds one compound with its values, some of them ahead of it.

Experiments:
[1] = format: in vivo, rat
Method: Vitamin D2 or 24-OH-D2 was administered (either oral or intraperitoneal supplementation) to vitamin D-deficient rats. Lipid extracts of the plasma were prepared and the metabolites purified by the method of Horst et al. (Horst, R. L., Koszewski, N. J. and Reinhardt, T. A., Biochem., 29:578-82 (1990)) described below for synthesyzing standard biological 1α,24-(OH)2 D2.
Standard biological 1α,24-(OH)2 D2 was synthesized in vitro from 24-OH-D2 by incubating 10 μg of 24-OH-D2 in flask containing 5 ml of 20% kidney homogenates made from vitamin D-deficient chicks. The product of this reaction was isolated by HPLC and identified by mass spectrometry.

vitamin D receptor (VDR) = target: T1, vitamin D receptor (VDR) (Homo sapiens, UniProt P11473); assay: Vitamin D-dependent transcriptional activation: growth hormone production in COS-1 cells co-transfected with VDR plasmid and VDRE-GH plasmid; format: cell-based; settings: for Total GH Production: averages of duplicate determinations
T1 sequence (P11473 1-427): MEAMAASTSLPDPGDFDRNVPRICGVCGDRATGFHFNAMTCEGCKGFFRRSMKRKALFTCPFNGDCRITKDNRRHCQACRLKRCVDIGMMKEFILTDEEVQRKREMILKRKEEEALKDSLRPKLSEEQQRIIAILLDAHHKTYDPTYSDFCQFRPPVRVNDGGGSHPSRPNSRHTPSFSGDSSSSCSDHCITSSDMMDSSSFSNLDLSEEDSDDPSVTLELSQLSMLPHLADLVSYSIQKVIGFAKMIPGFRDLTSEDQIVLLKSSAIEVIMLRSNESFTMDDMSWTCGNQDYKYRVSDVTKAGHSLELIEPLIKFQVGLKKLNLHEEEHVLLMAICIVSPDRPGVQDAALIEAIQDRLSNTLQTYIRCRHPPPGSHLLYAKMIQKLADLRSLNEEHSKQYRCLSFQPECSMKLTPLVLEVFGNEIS
Method: The biological activity in vitro of chemically synthesized 1α,24(S)-(OH)2 D2 and 1α,24(R)-(OH)2 D2 was measured using a vitamin D-dependent transcriptional activation model system in which a vitamin D receptor (VDR)-expressing plasmid pSG5-hVDR1/3and a plasmid p(CT4)^4 TKGH containing a Growth Hormone (GH)-gene, under the control of a vitamin D-responsive element (VDRE) were co-transfected into Green monkey kidney, COS-1 cells. DNA's for these two vectors were supplied by Dr. Mark Haussler, Department of Biochemistry, University of Arizona, Tucson, Ariz.
Tranfected cells were incubated with vitamin D metabolites and growth hormone production was measured.

Hep 3B cells = assay: Metabolite production in Hep 3B cells incubated with 1α-OH-D2; format: in vitro ADME, human; settings: Experiment 2; substrate 1α-OH-D2 10 μM; photodiode array spectrophotometry
Method: Substantially pure 1α-(OH)D2 was obtained from Bone Care International, Inc. of Madison, Wis. The 1α-(OH)D2 was cultured for 48 hours with cells derived from a human hepatoma, Hep 3B, in medium devoid of fetal calf serum using known methods in the art.
Lipid extracts of the combined medium and cells were generated by known methods in the art and were subjected to high pressure liquid chromatography (HPLC) on Zorbax-S1L developed with hexane/isopropanol/methanol (91:7:2). The putative 1α,24(?)-(OH)2 D2 metabolite eluted between the parent 1α-(OH)D2 and standard 1α,25-(OH)2 D2 (also obtained from Bone Care International, Inc. of Madison, Wis.). (As used herein, the term "1α,24(?)-(OH)2 D2 " is meant to indicate that the epimeric form has not been identified.) The 1α,24(?)-(OH)2 D2 was further purified by this HPLC system before the metabolite's identification was undertaken using mass spectrometry analysis.
Hep 3B cells were incubated with 1α-OH-D2, as described above, at final concentrations of 1, 10, or 100 nM (Experiment 1), and 1 or 10 μM (Experiment 2) and 1α,24(S)-(OH)2 D2 was extracted and purified. The 1α,24(S)-(OH)2 D2 and 1α,25-(OH)2 D2 metabolites were quantitated by recovered radiolabel (Experiment 1) or by photodiode array spectrophotometry (Experiment 2).

[2] = tested on: 1,25-(OH)2 D3 receptor site; settings: Ishizuka et al., Steroids 1981, 1982; cited from earlier work
[3] = tested on: human osteoporotic patients; settings: dosages of 2.0 μg/day or higher; cited from earlier work
[4] = oral or intraperitoneal supplementation, vitamin D-deficient rats, HPLC

Compound: C=C1CC[C@H](O)C/C1=C/C=C1\CCC[C@]2(C)[C@@H]([C@H](C)CCCC(C)C)CC[C@@H]12 [vitamin D3]
- metabolite found in lipid extracts of plasma [1, 4]: no detectable 24-OH-D3

Compound: C=C1CC[C@H](O)C/C1=C/C=C1\CCC[C@]2(C)[C@@H]([C@H](C)/C=C/[C@H](C)C(C)C)CC[C@@H]12 [vitamin D2, Vitamin D2]
- metabolite found in lipid extracts of plasma [1, 4]: one metabolite isolated co-migrated on HPLC with the standard 1α,24-(OH)2 D2

- Total GH Production (vitamin D receptor (VDR); inducer 10^-7 molar): 1300 ng/mL
- Total GH Production (vitamin D receptor (VDR); inducer 10^-8 molar): 1100 ng/mL
- Net vitamin D-inducible GH-production (vitamin D receptor (VDR); inducer 10^-9 molar): 36 ng/mL
- Total GH Production (vitamin D receptor (VDR); inducer 10^-9 molar): 80 ng/mL
Compound: C=C1/C(=C\C=C2/CCC[C@]3(C)[C@@H]([C@H](C)/C=C/[C@](C)(O)C(C)C)CC[C@@H]23)C[C@@H](O)C[C@@H]1O [1α,24(R)-(OH)2 D2, 1α,24(R)-dihydroxy vitamin D2]

- Rate of Production (Hep 3B cells): 7.4 pmol per 10^6 cells/day
Compound: C=C1/C(=C\C=C2/CCC[C@]3(C)[C@@H]([C@H](C)/C=C/[C@H](C)C(C)(C)O)CC[C@@H]23)C[C@@H](O)C[C@@H]1O [1α,25-(OH)2 D2, 1α,25-dihydroxy vitamin D2, reference compound]

Compound: C=C1/C(=C\C=C2/CCC[C@]3(C)[C@@H]([C@H](C)CC[C@@H](O)C(C)C)CC[C@@H]23)C[C@@H](O)C[C@@H]1O [1α,24(R)-(OH)2 D3, 1α,24(R)-dihydroxyvitamin D3]
- binding to the 1,25-(OH)2 D3 receptor site compared with 1,25-(OH)2 D3 [2]: more tightly than does 1,25-(OH)2 D3 itself

Compound: C=C1CC[C@H](O)C/C1=C/C=C1\CCC[C@]2(C)[C@@H]([C@H](C)/C=C/C(C)(O)C(C)C)CC[C@@H]12 (some centres unmarked) [24-OH-D2, 24-hydroxyvitamin D2]
- metabolite found in lipid extracts of plasma ([1]; rat, in vivo): one metabolite isolated co-migrated on HPLC with the standard 1α,24-(OH)2 D2

- Total GH Production (vitamin D receptor (VDR); inducer 10^-6 molar): 1100 ng/mL
Compound: C=C1CC[C@H](O)C/C1=C/C=C1\CCC[C@]2(C)[C@@H]([C@H](C)CCCC(C)(C)O)CC[C@@H]12 [25-OH-D3, 25-hydroxy vitamin D3, reference compound]

Compound: C=C1/C(=C\C=C2/CCC[C@]3(C)[C@@H]([C@H](C)/C=C/[C@H](C)C(C)C)CC[C@@H]23)C[C@@H](O)C[C@@H]1O [1α-(OH)D2, 1α-hydroxy vitamin D2]
- loss of bone mass [3]: will reverse the loss of bone mass
